The assay deals with Tyrosine-protein kinase SYK (Homo sapiens, UniProt P43405). The experiment in a line: Syk Kinase Inhibition Assay: The in vitro inhibitory activity of the compound of the present invention against Syk kinase activity was assayed under the following conditions: the purified human Syk protein used in the test were purchased from Carna Biosciences, Inc. For the inhibitory activity assay on the compound, the compound of the present invention was first serially diluted with dimethyl ….

Molecules are shown by their SMILES.

Description: Syk Kinase Inhibition Assay: The in vitro inhibitory activity of the compound of the present invention against Syk kinase activity was assayed under the following conditions: the purified human Syk protein used in the test were purchased from Carna Biosciences, Inc. For the inhibitory activity assay on the compound, the compound of the present invention was first serially diluted with dimethyl sulfoxide (DMSO). […] The kinase reaction was stopped by the addition thereto of EDTA.

For orientation: IC50 means the concentration that inhibits the measured activity by half. A low value points to greater potency in that assay. The compound `NC(=O)c1nnc(N[C@@H]2CCCC[C@@H]2N)nc1Nc1nc(-c2ccccc2)cs1` returned a half-inhibitory concentration (IC50) of 0.38 nM. This counts as sub-nanomolar.
Compound `NC(=O)c1nnc(N[C@@H]2CCOC[C@@H]2N)nc1Nc1csc2ccccc12` yielded an IC50 of 0.89 nM.
Consider `Cc1cc(Nc2nc(N[C@@H]3CCOC[C@@H]3N)nnc2C(N)=O)cc2ccsc12`, for which the concentration for half-maximal inhibition (IC50) came to 0.37 nM.

The values above are taken from ChEMBL document CHEMBL3886160, “1,2,4-triazine-6-carboxamide derivative” (2015).
